Test results taken from US20030215462A1, “Use of UGT inhibitors to increase bioavailability” (priority 2001, published 2003).

Experiments:
[1] = system: T1, UGT enzymes of human liver microsomes; assay: Inhibition of estradiol (E2) glucuronidation in human liver microsomes; format: biochemical; details: liver 032101; E2 50 μM; inhibitor 100 μM
T1 construct: residual metabolism (% of control), E2-3-β-D-glucuronide; other: liver 032101; residual metabolism (% of control), E2-3-β-D-glucuronide
From the text: (§1) Compounds were eluted using a binary solvent gradient system where solvent A was dilute phosphoric acid (pH 3) and solvent B was 80:20 acetonitrile-methanol. […] Detection was at 280 nm.

[2] = system: UGT enzymes of human liver microsomes; assay: as above; format: biochemical; details: E2 50 μM
From the text: as §1

[3] = system: T2, UGT enzymes of human liver microsomes; assay: as above; format: biochemical; details: liver 032101; E2 50 μM; inhibitor 100 μM
T2 construct: residual metabolism (% of control), E2-17-β-D-glucuronide; other: liver 032101; residual metabolism (% of control), E2-17-β-D-glucuronide
From the text: as §1

[4] = system: T3, UGT enzymes of human liver microsomes; assay: Inhibition of 7-HFC glucuronidation in human liver microsomes; format: biochemical; details: for % of control metabolism (SD, n = 3), 7-HFC glucuronidation: 7-HFC 50 μM, human liver microsomes 100 μg/ml, 15 min
T3 construct: percentage of control metabolism, 7-HFC glucuronidation; percentage of control metabolism, 7-HFC glucuronidation

UGT1A10 = target: T4, UGT1A10 (Homo sapiens, UniProt Q9HAW8); assay: Inhibition of raloxifene glucuronidation by recombinant UGT1A10 Bacculosomes; details: human; for activity at 15 min, 50 µM: Bacculosomes with recombinant human UGT1A10, pH 7.5, probe raloxifene 50 μM, inhibitor 50 μM
T4 sequence (Q9HAW8 26-530): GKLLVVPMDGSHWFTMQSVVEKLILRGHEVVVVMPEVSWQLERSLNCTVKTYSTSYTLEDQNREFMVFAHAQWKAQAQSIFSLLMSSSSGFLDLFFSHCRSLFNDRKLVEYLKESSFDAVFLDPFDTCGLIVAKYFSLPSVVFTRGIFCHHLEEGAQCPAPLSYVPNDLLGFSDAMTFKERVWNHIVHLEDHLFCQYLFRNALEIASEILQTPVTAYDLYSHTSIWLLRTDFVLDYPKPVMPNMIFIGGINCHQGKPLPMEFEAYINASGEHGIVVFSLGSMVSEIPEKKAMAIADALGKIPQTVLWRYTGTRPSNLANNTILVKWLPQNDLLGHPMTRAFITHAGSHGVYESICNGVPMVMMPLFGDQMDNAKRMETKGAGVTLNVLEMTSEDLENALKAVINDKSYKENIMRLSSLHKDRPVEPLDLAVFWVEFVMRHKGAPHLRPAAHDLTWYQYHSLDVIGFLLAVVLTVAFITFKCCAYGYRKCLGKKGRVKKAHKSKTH
Procedure: (§2) Compounds were eluted using a binary solvent gradient system. Solvent A was water brought to pH 8 with NH4OH. Solvent B was methanol. Solvent flow rate was 1 ml/min and the column temperature was maintained at 50° C. Detection was at 280 nm. […] The system was then returned to the initial conditions and equilibrated for 3 min.

UGT1A3 = target: T5, UGT1A3 (Homo sapiens, UniProt P35503); assay: Inhibition of raloxifene glucuronidation by recombinant UGT1A3 Supersomes; details: human; for activity at 15 min, 10 µM: inhibitor 10 μM; for activity at 15 min, 25 µM: inhibitor 25 μM; for activity at 15 min, 50 µM: inhibitor 50 μM
T5 sequence (P35503 29-534): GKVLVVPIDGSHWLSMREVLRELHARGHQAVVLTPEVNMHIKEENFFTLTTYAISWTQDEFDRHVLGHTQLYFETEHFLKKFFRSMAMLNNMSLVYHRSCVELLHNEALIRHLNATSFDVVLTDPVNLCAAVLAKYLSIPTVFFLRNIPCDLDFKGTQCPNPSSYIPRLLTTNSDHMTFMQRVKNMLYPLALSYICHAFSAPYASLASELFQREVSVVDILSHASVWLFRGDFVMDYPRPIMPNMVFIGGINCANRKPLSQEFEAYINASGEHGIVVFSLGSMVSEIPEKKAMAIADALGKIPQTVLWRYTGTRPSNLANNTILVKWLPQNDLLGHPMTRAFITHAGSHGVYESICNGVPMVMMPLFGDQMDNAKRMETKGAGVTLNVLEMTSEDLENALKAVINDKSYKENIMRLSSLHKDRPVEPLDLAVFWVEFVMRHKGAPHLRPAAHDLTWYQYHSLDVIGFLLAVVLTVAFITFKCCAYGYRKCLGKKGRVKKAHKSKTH
Procedure: as §2

UGT1A1 = target: T6, UGT1A1 (Homo sapiens, UniProt P22309); assay: Inhibition of raloxifene glucuronidation by recombinant UGT1A1 Supersomes; details: human; for activity at 15 min, 10 µM: inhibitor 10 μM; for activity at 15 min, 25 µM: inhibitor 25 μM; for activity at 15 min, 50 µM: inhibitor 50 μM
T6 sequence (P22309 26-533): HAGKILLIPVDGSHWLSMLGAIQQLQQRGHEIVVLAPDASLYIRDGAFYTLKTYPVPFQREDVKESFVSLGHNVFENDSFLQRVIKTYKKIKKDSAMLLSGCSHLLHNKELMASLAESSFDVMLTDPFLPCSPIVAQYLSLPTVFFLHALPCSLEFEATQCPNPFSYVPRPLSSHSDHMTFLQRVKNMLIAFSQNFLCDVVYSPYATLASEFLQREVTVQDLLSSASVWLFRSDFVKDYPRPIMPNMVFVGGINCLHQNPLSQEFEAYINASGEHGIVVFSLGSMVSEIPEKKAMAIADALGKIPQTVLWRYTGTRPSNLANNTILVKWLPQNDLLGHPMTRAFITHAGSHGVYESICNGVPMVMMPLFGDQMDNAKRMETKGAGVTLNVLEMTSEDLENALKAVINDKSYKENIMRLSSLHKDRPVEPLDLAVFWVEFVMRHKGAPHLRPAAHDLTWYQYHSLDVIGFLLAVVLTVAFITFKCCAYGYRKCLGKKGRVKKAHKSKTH
Procedure: as §2

[5] = system: UGT enzymes of pooled human jejunum microsomes; assay: Inhibition of raloxifene glucuronidation (G1, G2) in pooled human jejunum microsomes; format: biochemical; details: jejunum HJ61; inhibitor 10 μM
Procedure: Compounds were eluted using a binary solvent gradient system. […] Solvent B was methanol. […] Detection was at 280 nm.
Standardized incubations utilized […] microsomal protein, 1 mM UDPGA and a 30 min incubation time.

[6] = system: UGT enzymes of pooled human jejunum microsomes; assay: Inhibition of estradiol (E2) glucuronidation in pooled human jejunum microsomes; format: biochemical; details: jejunum HJ61, E2 50 μM
From the text: as §1

[7] = Supersomes with recombinant human UGT1A3, pH 7.5, probe raloxifene 50 μM, formation of glucuronide G1, % of control metabolism, raloxifene G1, UGT1A3
[8] = Supersomes with recombinant human UGT1A3, pH 7.5, probe raloxifene 50 μM, formation of glucuronide G2, % of control metabolism, raloxifene G2, UGT1A3
[9] = recombinant UGT1A3 Supersomes, pH 7.5, probe raloxifene 50 μM (formation of glucuronide G1), Inhibition of raloxifene glucuronidation, G1, UGT1A3, G1, raloxifene 50 μM, 250 μg/ml Supersomes, 1 mM UDPGA, 15 min
[10] = recombinant UGT1A3 Supersomes, pH 7.5, probe raloxifene 50 μM (formation of glucuronide G2), Inhibition of raloxifene glucuronidation, G2, UGT1A3, G2, raloxifene 50 μM, 250 μg/ml Supersomes, 1 mM UDPGA, 15 min
[11] = Supersomes with recombinant human UGT1A1, pH 7.5, probe raloxifene 50 μM, formation of glucuronide G1, % of control metabolism, raloxifene G1, UGT1A1
[12] = Supersomes with recombinant human UGT1A1, pH 7.5, probe raloxifene 50 μM, formation of glucuronide G1, Inhibition of raloxifene glucuronidation, G1, UGT1A1, G1, raloxifene 50 μM, 250 μg/ml Supersomes, 1 mM UDPGA, 15 min
[13] = Supersomes with recombinant human UGT1A1, pH 7.5, probe raloxifene 50 μM, formation of glucuronide G2, % of control metabolism, raloxifene G2, UGT1A1
[14] = recombinant UGT1A1 Supersomes, pH 7.5, probe raloxifene 50 μM (formation of glucuronide G2), Inhibition of raloxifene glucuronidation, G2, UGT1A1, G2, raloxifene 50 μM, 250 μg/ml Supersomes, 1 mM UDPGA, 15 min

Question: Which results are given for `CC/C(=C(/CC)c1ccc(O)cc1)c1ccc(O)cc1` [Diethylstilbestrol, reference compound]?
Answer: residual metabolism (% of control), E2-3-β-D-glucuronide [1]: 69 (1), %; residual metabolism (% of control), E2-3-β-D-glucuronide ([2]; liver 032101, inhibitor 1 μM): 85 (1), %; residual metabolism (% of control), E2-17-β-D-glucuronide ([2]; liver 032101, inhibitor 1 μM): 361 (6) %; residual metabolism (% of control), E2-3-β-D-glucuronide ([2]; liver 032101, inhibitor 10 μM): 57 (4), %; residual metabolism (% of control), E2-17-β-D-glucuronide ([2]; liver 032101, inhibitor 10 μM): 545 (32) %; residual metabolism (% of control), E2-3-β-D-glucuronide ([2]; liver 062101, inhibitor 1 μM): 86 (3) %; residual metabolism (% of control), E2-17-β-D-glucuronide ([2]; liver 062101, inhibitor 1 μM): 254 (2) %; residual metabolism (% of control), E2-3-β-D-glucuronide ([2]; liver 062101, inhibitor 10 μM): 71 (2) %; residual metabolism (% of control), E2-17-β-D-glucuronide ([2]; liver 062101, inhibitor 10 μM): 446 (7) %; residual metabolism (% of control), E2-17-β-D-glucuronide [3]: 217 (5) %; percentage of control metabolism, 7-HFC glucuronidation ([4]; inhibitor 25 μM): 57 (1) %; % of control metabolism (SD, n = 3), 7-HFC glucuronidation ([4]; inhibitor 25 μM): 57 (1) %; percentage of control metabolism, 7-HFC glucuronidation ([4]; inhibitor 50 μM): 34 (2) %; % of control metabolism (SD, n = 3), 7-HFC glucuronidation ([4]; inhibitor 50 μM): 34 (2) %; percentage of control metabolism, 7-HFC glucuronidation ([4]; inhibitor 100 μM): 11 (1) %; % of control metabolism (SD, n = 3), 7-HFC glucuronidation ([4]; inhibitor 100 μM): 11 (1) %; percentage of control metabolism, 7-HFC glucuronidation ([4]; inhibitor 200 μM): 1 (0) %; % of control metabolism (SD, n = 3), 7-HFC glucuronidation ([4]; inhibitor 200 μM): 1 (0) %; percentage of control metabolism, 7-HFC glucuronidation ([4]; inhibitor 500 μM): 0.1 (0) %; % of control metabolism (SD, n = 3), 7-HFC glucuronidation ([4]; inhibitor 500 μM): 0.1 (0) %; activity at 15 min, 10 µM (UGT1A10; Bacculosomes with recombinant human UGT1A10, pH 7.5, % of control metabolism, raloxifene glucuronide (one value printed, G1 or G2 not stated), UGT1A10, inhibitor 10 μM): 70%; activity at 15 min, 25 µM (UGT1A10; Bacculosomes with recombinant human UGT1A10, pH 7.5, % of control metabolism, raloxifene glucuronide (one value printed, G1 or G2 not stated), UGT1A10, inhibitor 25 μM): 74%; activity at 15 min, 50 µM (UGT1A10; formation of glucuronide G1, % of control metabolism, raloxifene G1, UGT1A10): 50%; activity at 15 min, 50 µM (UGT1A10; formation of glucuronide G2, % of control metabolism, raloxifene G2, UGT1A10): 39%; activity at 15 min, 10 µM (UGT1A3; [7]): 65%; activity at 15 min, 25 µM (UGT1A3; [7]): 32%; activity at 15 min, 50 µM (UGT1A3; [7]): 14%; activity at 15 min, 10 µM (UGT1A3; [8]): 74%; activity at 15 min, 25 µM (UGT1A3; [8]): 48%; activity at 15 min, 50 µM (UGT1A3; [8]): 21%; activity at 15 min, 10 µM (UGT1A3; [9]): 65%; activity at 15 min, 25 µM (UGT1A3; [9]): 32%; activity at 15 min, 50 µM (UGT1A3; [9]): 14%; activity at 15 min, 10 µM (UGT1A3; [10]): 74%; activity at 15 min, 25 µM (UGT1A3; [10]): 48%; activity at 15 min, 50 µM (UGT1A3; [10]): 21%; activity at 15 min (UGT1A1; Supersomes with recombinant human UGT1A1, pH 7.5, probe raloxifene 50 μM, formation of glucuronide G1): 59%; activity at 15 min, 10 µM (UGT1A1; [11]): 59%; activity at 15 min, 25 µM (UGT1A1; [11]): 26%; activity at 15 min, 50 µM (UGT1A1; [11]): 12%; activity at 15 min, 25 µM (UGT1A1; [12]): 26%; activity at 15 min, 50 µM (UGT1A1; [12]): 12%; activity at 15 min, 10 µM (UGT1A1; [13]): 72%; activity at 15 min, 25 µM (UGT1A1; [13]): 41%; activity at 15 min, 50 µM (UGT1A1; [13]): 27%; activity at 15 min (UGT1A1; recombinant UGT1A1 Supersomes, pH 7.5, probe raloxifene 50 μM (formation of glucuronide G2)): 72%; activity at 15 min, 25 µM (UGT1A1; [14]): 41%; activity at 15 min, 50 µM (UGT1A1; [14]): 27%; % of control metabolism, raloxifene G1 [5]: 78 (0) %; % of control metabolism, raloxifene G2 [5]: 90 (4) %; residual metabolism (% of control), E2-3-β-D-glucuronide ([6]; inhibitor 1 μM): 86 (2) %; residual metabolism (% of control), E2-17-β-D-glucuronide ([6]; inhibitor 1 μM): 108 (5) %; residual metabolism (% of control), E2-3-β-D-glucuronide ([6]; inhibitor 10 μM): 53 (4) %; residual metabolism (% of control), E2-17-β-D-glucuronide ([6]; inhibitor 10 μM): 78 (3) %; residual metabolism (% of control), E2-3-β-D-glucuronide ([6]; inhibitor 100 μM): 5 (1) %; residual metabolism (% of control), E2-17-β-D-glucuronide ([6]; inhibitor 100 μM): 24 (4) %
